Results taken from US8119614B2, “Substitution derivatives of N6-benzyladenosine, methods of their preparation, their use for preparation of drugs, cosmetic preparations and growth regulators, pharmaceutical preparations, cosmetic preparations and growth regulators containing these compounds” (Ustav Experimentalni Botaniky Akademie Ved Ceske Republiky, priority 2002, dated 2012).
Peptide text beside a SMILES is read from it. * marks the point of attachment. Cbz = O=C(OCc1ccccc1)*; CH2F = FC*

Test system: HL-60 cells
Assay: HL-60 cell proliferation and viability (FDA/PI staining)
Assay type: cell-based, human
Conditions: 50 μM Z-VAD-FMK with 20 μM 2OH3MeOBAPR, 72 h (FIG. 10)
Description: Cell culture. A suspension of human promyelocytic HL-60 cells was cultured in RPMI-1640 medium supplemented with a 10% calf foetal serum and antibiotics in 5% CO2 atmosphere at 37° C. Cells were maintained at density from 1×10^5 to 6×10^5 cells per ml. HL-60 cells were obtained from ECACC.
Cell viability assay. Double staining with fluorescein diacetate (FDA) and propidium iodide (PI) for discrimination of dead and living cells was used. Cells were stained in growing medium with PI at a concentration 10 μg/ml 5 min later FDA was added at a concentration 1 μg/ml. The percentage of dead cells (i.e., red stained cells) was evaluated using fluorescence microscopy (Mlejnek and Kolman 1999).

SMILES: COC(=O)C[C@H](NC(=O)[C@H](C)NC(=O)[C@@H](NC(=O)OCc1ccccc1)C(C)C)C(=O)CF [Z-VAD-FMK, reference compound] (Cbz-Val-Ala-Asp(OMe)-CH2F)
- effect of caspase inhibitor on 2OH3MeOBAPR induced apoptosis and cell death: suppress morphological and biochemical characteristics of apoptosis, however it does not inhibit cell death itself
